For data set [1], the target named is T1, maize endosperm ADP-glucose pyrophosphorylase (AGPase) variant BT2-TI/SH2, small subunit BT2 with Thr462 to Ile (TI, SEQ ID NO:2) complexed with wild type SH2 (Zea mays, UniProt P55241+Q947C0, T462I).
T1 sequence (Q947C0 1-475 T462I): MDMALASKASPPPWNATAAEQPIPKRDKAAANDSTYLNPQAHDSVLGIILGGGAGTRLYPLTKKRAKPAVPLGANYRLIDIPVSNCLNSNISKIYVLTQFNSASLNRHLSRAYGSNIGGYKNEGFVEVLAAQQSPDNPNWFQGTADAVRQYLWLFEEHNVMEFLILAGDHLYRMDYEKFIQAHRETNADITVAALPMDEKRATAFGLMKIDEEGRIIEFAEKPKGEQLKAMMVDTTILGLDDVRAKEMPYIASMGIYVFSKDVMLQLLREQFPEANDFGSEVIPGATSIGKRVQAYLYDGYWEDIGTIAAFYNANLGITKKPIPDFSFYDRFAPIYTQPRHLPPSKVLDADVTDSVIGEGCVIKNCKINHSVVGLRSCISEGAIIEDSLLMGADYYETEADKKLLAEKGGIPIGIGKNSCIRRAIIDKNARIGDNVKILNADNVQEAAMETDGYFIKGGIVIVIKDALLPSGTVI
T1 sequence (P55241 46-516): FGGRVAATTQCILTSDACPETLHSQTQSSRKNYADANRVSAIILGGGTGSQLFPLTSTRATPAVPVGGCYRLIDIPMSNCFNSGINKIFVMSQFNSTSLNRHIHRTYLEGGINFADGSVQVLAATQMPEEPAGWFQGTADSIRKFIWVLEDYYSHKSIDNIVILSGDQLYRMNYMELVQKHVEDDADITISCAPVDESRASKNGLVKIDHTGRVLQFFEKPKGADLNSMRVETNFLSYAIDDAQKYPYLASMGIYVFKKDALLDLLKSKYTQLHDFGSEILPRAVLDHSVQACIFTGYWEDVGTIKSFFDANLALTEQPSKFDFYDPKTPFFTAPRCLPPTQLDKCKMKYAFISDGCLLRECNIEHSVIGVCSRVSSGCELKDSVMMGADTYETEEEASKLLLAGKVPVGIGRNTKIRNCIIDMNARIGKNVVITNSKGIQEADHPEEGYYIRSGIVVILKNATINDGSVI
In words: Kinetic and allosteric characterization of purified recombinant AGPase, forward direction (BT2-TI/SH2). It is filed as biochemical. On the procedure:
(§1) The following steps were conducted at 4° C.
(§2) The reaction was stopped by boiling for 2 min. […] NADH concentration was estimated by absorbance at 340 nm.
A mutant Bt2 library was created by error-prone PCR. The mutational load was ˜2 non-synonymous mutations per clone (Georgelis et al. 2007). The mutants were expressed in E. coli along with a wildtype Sh2 gene. Approximately 50,000 colonies were screened for glycogen production. Ten dark staining colonies were picked. The two darkest staining Bt2 mutants were sequenced. Both had the same non-synonymous mutation resulting in a change of amino acid 462 from threonine to isoleucine (TI). The threonine in that position is absolutely conserved among the higher plant small subunits (data not shown).
Ki's are expressed as mean (95% confidence interval). All other values are expressed as mean±standard deviation.

In data set [2] the target is ADP-glucose pyrophosphorylase (AGPase) MP/SH2, mosaic small subunit MP (first 200 amino acids of maize BT2 and last 275 amino acids of potato tuber small …). To be noted: for Km: forward direction, pH 7.4, 37° C.
Description: AGPase was desalted by using Zeba Micro Desalt Spin Columns (Pierce) before assaying. AGPase was exchanged into 50 mM HEPES, 5 mM MgCl2, 0.5 mM EDTA and 0.5 mg/mL BSA (for stability).
The reaction was stopped by boiling for 2 min. PPi was estimated by coupling the reaction to a reduction in NADH concentration using 300 μl of coupling reagent. The coupling reagent contained 25 mM imidazole pH 7.4, 4 mM MgCl2, 1 mM EDTA, 0.2 mM NADH, 0.725U aldolase, 0.4U triose phosphate isomerase, 0.6U glycerophosphate dehydrogenase, 1 mM fructose 6-phosphate and 0.8 μg of pyrophosphate dependent phosphofructokinase (PPi-PFK). […] NADH concentration was estimated by absorbance at 340 nm. PPi concentration was calculated by a standard curve developed by using various amounts of PPi instead of AGPase. […] The kinetic constants of AGPase were calculated by Prism 4.0 (Graph Pad, San Diego Calif.).
All other values are expressed as mean±standard deviation. The specific activity of AGPase in the absence of 3-PGA is expressed as a percentage of the specific activity in the presence of 10 mM of 3-PGA (mean±standard error).
The target in data set [3] is ADP-glucose pyrophosphorylase (AGPase) variant MP-TI/SH2, maize/potato mosaic small subunit MP with the TI mutation (threonine to isoleucine at position …). Description: Kinetic and allosteric characterization of purified recombinant AGPase, forward direction (MP-TI/SH2). Format: biochemical, maize (Zea mays) / potato tuber. On the procedure: as §1, §2
(§3) All other values are expressed as mean±standard deviation.

For data set [4], the target named is T2, maize endosperm ADP-glucose pyrophosphorylase (AGPase) BT2/SH2, wild type small subunit BT2 complexed with wild type large subunit SH2 (Zea mays, UniProt P55241+Q947C0).
T2 sequence (Q947C0 1-475): T1 sequence (Q947C0 1-475 T462I) with I462T
T2 sequence (P55241 46-516): T1 sequence (P55241 46-516)
In words: Kinetic and allosteric characterization of purified recombinant AGPase, forward direction (BT2/SH2). Format: biochemical. On the procedure:
as §1, §2, §3

For data set [5], the system named is ADP-glucose pyrophosphorylase (AGPase) MP/SH2, mosaic small subunit MP (first 200 amino acids of maize BT2 and last 275 amino acids of potato tuber small …). To be noted: MP/SH2 compared to wildtype BT2/SH2; Cross et al., 2004; Boehlein et al., 2005; cited from earlier work.
Another data set deals with E. coli cells. Description: Glycogen produced by E. coli cells expressing AGPase subunits. To be noted: subunit expressed with SH2 or alone (homotetramer). Format: cell-based. From the text:
A bacterial expression system (Iglesias et al., 1993) allowed us to randomly mutagenize maize endosperm AGPase genes and score AGPase activity in a fast and efficient way by exposing plates to iodine vapors as described below. The E. coli system is ideal for studying plant AGPases for a number of reasons discussed in Georgelis et al. (2007).
Glycogen synthesis was detected by production of brown staining colonies following exposure to iodine vapors. […] (Govons et al., 1969). The colonies were exposed to iodine vapors for 1 min. […] AGPase variants staining darker than wildtype were selected for further study.
Glycogen quantitation was performed by phenol reaction (Hanson and Phillips, 1981). In brief, glycogen was extracted from 1.6 ml of E. coli cells (OD600=2.0) grown in LB containing 2% w/v glucose by boiling for 3 hours in 50% w/v KOH. Glycogen was then precipitated by adding ethanol to 70% v/v and centrifuging at 10000×g for 10 min. After pellet drying, 200 μl de-ionized water, 200 μl of 5% w/v phenol and 1 mL of concentrated sulfuric acid were added. Glycogen was estimated by the absorbance at 488 nm.

In the next data set the test system is maize endosperm AGPase. Description: Kinetic characterization of purified recombinant AGPase variants, forward direction. To be noted: compared to BT2/SH2. Format: biochemical. On the procedure: as §1, §2, §3
In another data set the target is T3, SH2 (Zea mays, UniProt P55241).
T3 construct: expressed in transfected cells
T3 sequence (P55241 46-516): T1 sequence (P55241 46-516)
Description: Yeast two hybrid, quantitative β-galactosidase assay of subunit-subunit interactions. Format: cell-based, maize. The settings on record: SH2 as bait, small subunit as prey; listed as TI. How it is done: Yeast transformations and a β-galactosidase assay were conducted as described by Greene and Hannah (1998b). The only modification was the use of pGBKT7 and pGADT7 as vectors for the bait and the prey respectively. pGBKT7-53 and pGADT7-T plasmids were used as a positive control.

[6] abbreviates: 1 mM ATP, 2 mM G-1-P, 2.5 mM 3-PGA, mean (95% confidence interval), read-out: Ki Pi.
Where [7] appears, read: specific activity in absence of 3-PGA as percentage of that with 10 mM 3-PGA, mean±standard error.
Setting [8] is: varying ATP, G-1-P saturating (2 mM), mean±standard deviation.

The values below come from US8536407B2, “Heat resistant plants and plant tissues comprising a variant adenosine diphosphate glucose pyrophosphorylase small subunit protein and methods of use thereof” (University of Florida Research Foundation, Inc., priority 2008, dated 2013).

Changes are numbered by the printed parent chain. Entries after “also recorded” stand apart in the source; their conditions may differ. Read-outs that look alike come from different tables or passages of the source.

In the case of `O=P(O)(O)O` [Pi, inorganic phosphate], the inhibition constant (Ki) (as a rule, a measure of affinity in units of concentration, obtained from inhibition or displacement) was found to be 4.07 mM in data set [1] (BT2-TI/SH2, 1 mM ATP, 2 mM G-1-P, 2.5 mM 3-PGA, mean (95% confidence interval), read-out: Ki Pi); 6.61 mM in data set [2] (read-out: Ki Pi, MP/SH2, 1 mM ATP, 2 mM G-1-P, 2.5 mM 3-PGA, mean (95% confidence interval)); 5.87 mM in data set [3] (setting [6]); 2.32 mM in data set [4] (setting [6]). For the same molecule, the “Ki for Pi (compared with BT2/SH2, in words)” value in data set [1] (BT2-TI/SH2 versus BT2/SH2) is given as “indistinguishable from BT2/SH2”. The “affinity for Pi (in words)” value in data set [2] (MP/SH2 compared to BT2/SH2) was “decreased affinity for Pi; also recorded: a lower affinity for the inhibitor Pi”.
Turning to `O=C(O)[C@H](O)COP(=O)(O)O` [3-PGA], the “Ka for 3-PGA (compared with BT2/SH2, in words)” value in data set [1] (BT2-TI/SH2 versus BT2/SH2) is “indistinguishable from BT2/SH2”. The “Vmax − 3-PGA/Vmax + 3-PGA” value in data set [2] (MP/SH2, specific activity in absence of 3-PGA as percentage of that with 10 mM 3-PGA, mean±standard error) was “(28.2 ± 3.1%)”; in data set [3] (setting [7]), “(24.4 ± 5.3%)”; in data set [4] (setting [7]), “(7.2 ± 3.2%)”. Besides, the “affinity for 3-PGA (in words)” value in data set [2] (MP/SH2 compared to BT2/SH2) was “increased affinity for 3-PGA; also recorded: a higher affinity for 3-PGA”; in data set [5], “increased affinity for 3-PGA”.
Turning to `Nc1ncnc2c1ncn2[C@@H]1O[C@H](COP(=O)(O)OP(=O)(O)OP(=O)(O)O)[C@@H](O)[C@H]1O` [ATP], the “kcat (ATP)” value worked out at 29.112 s⁻¹ in data set [1] (BT2-TI/SH2, varying ATP, G-1-P saturating (2 mM), mean±standard deviation); 69.337 s⁻¹ in data set [2] (MP/SH2, varying ATP, G-1-P saturating (2 mM), mean±standard deviation); 49.031 s⁻¹ in data set [3] (setting [8]); 43.321 s⁻¹ in data set [4] (setting [8]). Moreover, in data set [1] (BT2-TI/SH2 versus BT2/SH2), the “Km (compared with BT2/SH2, in words)” value is given as “indistinguishable from BT2/SH2”. The Michaelis-Menten constant (Km) – broadly, the substrate concentration at which the rate is half of its maximum – in data set [1] (read-out: Km ATP, BT2-TI/SH2, forward direction, pH 7.4, 37° C., varying ATP, mean±standard deviation) was 146 µM; in data set [2] (read-out: Km ATP, MP/SH2, varying ATP, mean±standard deviation), 133 µM; in data set [3] (forward direction, pH 7.4, 37° C., varying ATP, mean±standard deviation, read-out: Km ATP) it was 112 µM; in data set [4] (read-out: Km ATP, forward direction, pH 7.4, 37° C., varying ATP, mean±standard deviation) it was 102 µM.
Regarding `O=P(O)(O)O[C@H]1O[C@H](CO)[C@@H](O)[C@H](O)[C@H]1O` [G-1-P, glucose-1-P], the “Km (compared with BT2/SH2, in words)” value in data set [1] (BT2-TI/SH2 versus BT2/SH2) was “indistinguishable from BT2/SH2”. The “kcat (G-1-P)” value in data set [2] (MP/SH2, varying G-1-P, ATP saturating (1 mM), mean±standard deviation) is 62.655 s⁻¹; in data set [3] (varying G-1-P, ATP saturating (1 mM), mean±standard deviation), 42.880 s⁻¹. The Michaelis-Menten constant (Km) in data set [2] (read-out: Km G-1-P, MP/SH2, varying G-1-P, mean±standard deviation) turned out to be 79 µM; in data set [3] (read-out: Km G-1-P, forward direction, pH 7.4, 37° C., varying G-1-P, mean±standard deviation) it was 59 µM.

B1: MP-TI: MP mosaic small subunit with the amino acid change of TI introduced (protein)
chain: MDMALASKASPPPWNATAAEQPIPKRDKAAANDSTYLNPQAHDSVLGIILGGGAGTRLYPLTKKRAKPAVPLGANYRLIDIPVSNCLNSNISKIYVLTQFNSASLNRHLSRAYGSNIGGYKNEGFVEVLAAQQSPDNPNWFQGTADAVRQYLWLFEEHNVMEFLILAGDHLYRMDYEKFIQAHRETNADITVAALPMDEKRATAFGLMKIDEEGRIIEFAEKPQGEQLQAMKVDTTILGLDDKRAKEMPFIASMGIYVISKDVMLNLLRDKFPGANDFGSEVIPGATSLGMRVQAYLYDGYWEDIGTIEAFYNANLGITKKPVPDFSFYDRSAPIYTQPRYLPPSKMLDADVTDSVIGEGCVIKNCKIHHSVVGLRSCISEGAIIEDSLLMGADYYETDADRKLLAAKGSVPIGIGKNCHIKRAIIDKNARIGDNVKIINKDNVQEAARETDGYFIKSGIVIVIKDALIPSGIII
modifications: zea mays MP-TI protein
notes: MP mosaic small subunit with the amino acid change of TI introduced
B1: in the data set with E. coli cells, the “glycogen produced by E. coli cells” value is reported as “yielded an equal amount of glycogen as MP/SH2”.

B2: BT2-TI: BT2 small subunit with change of amino acid 462 from threonine to isoleucine (protein)
chain: T1 sequence (Q947C0 1-475 T462I)
modifications: zea mays BT2 protein
notes: BT2 small subunit with change of amino acid 462 from threonine to isoleucine
For the molecule B2, the “kcat lower than kcat of BT2/SH2” value in the data set on maize endosperm AGPase stood at 30%. Besides, the “strength of subunit-subunit interactions” value in the data set with SH2 is “did not increase the strength of subunit-subunit interactions; also recorded: does not strengthen the subunit-subunit interactions”.
